EC50, IC50 and outcome data for 72 molecules are collected here from PubChem BioAssay AID179 (DTP/NCI, 2004).

pEC50, pIC50: −log10 of the molar value. Activity calls are given as the source filed them.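 The calls were made as follows: active = compounds giving half or more protection of infected cells from virus-caused growth loss, again on retest; inactive = the rest.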

The test system of this assay is CEM cells HIV-1 protection, formazan growth assay. The assay can be described thus: NCI AIDS Antiviral Assay. As to conditions: for pIC50: measured here: growth of uninfected CEM cells. Summed up:
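Protection of CEM cells against HIV-1 was scored from cell growth (soluble formazan) across five concentrations, with parallel uninfected cells. Lack of protection may reflect toxicity.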

One may read the pEC50 as the negative decadic logarithm of the EC50, by convention in mol/L. The term pIC50 denotes −log10 of the IC50, conventionally taken in molar units. As to `CC12CCC(C1)C(O)(c1ccccc1)C2(O)c1ccccc1` (centres undefined), the pEC50 is less than 4.22 and the pIC50 is 4.35.
As for `c1ccc(-c2nc3sccn3n2)cc1`, the outcome was inactive.
For `O=C1/C(=N\[O-])C(S(=O)(=O)[O-])=Cc2cc(S(=O)(=O)[O-])cc(O)c21.O=C1/C(=N\[O-])C(S(=O)(=O)[O-])=Cc2cc(S(=O)(=O)[O-])cc(O)c21.[Cu+2]`, the pEC50 is less than 3.70 and the pIC50 was 3.91.
As to `C/C=C/C(=O)[O-].N.N.N.N.N.[Co+3].[O-][Cl+3]([O-])([O-])[O-]`, the result was inactive.
On to `CC(=O)Oc1c(C)c2c(c3ccccc13)OC(C)(C)C2`, for which the pEC50 was less than 3.70 and the negative-log IC50 (pIC50) is 4.62.
On to `Cc1ccc(-n2c3nc(=O)n(C)c(=O)c-3nc3ccccc32)cc1`, for which the outcome was inactive.
In the case of `S=c1cn[nH]c2c(Cl)cccc12`, the pEC50 is less than 3.97 and the pIC50 is 4.09.
For the molecule `CC1(C)CCSC(/C=C/c2ccccc2)=N1`, the pEC50 is less than 4.70 and the negative-log IC50 (pIC50) was 5.38.
`COC1=CC(=O)C(=O)c2ccc(C)nc21`: the outcome was inactive.
Take `[O-]c1nn(C2OC(CO)C(O)C2O)c2cccc[n+]12` (centres undefined): the pEC50 was less than 3.03 and the pIC50 was less than 3.03.
On to `C=C(Br)CNC(=O)CCC(=O)NCC(=C)Br`, for which the pEC50 is less than 3.70 and the pIC50 was less than 3.70.
Take `Brc1ncnc2c1ncn2C1CCCS1` (centres undefined): the outcome was inactive.
Regarding `O=C(Cc1ccccc1)NN1C(=O)C(Cl)C1c1ccccc1Cl` (centres undefined), the pEC50 is less than 4.54 and the pIC50 was less than 4.54.
For `COc1ccc(N2C(=O)[C@@H](N=[N+]=[N-])[C@@H]2[C@H]2COC(C)(C)O2)cc1`, the pEC50 is less than 3.39 and the negative-log IC50 (pIC50) was less than 3.39.
For the molecule `C[C@H](CCCN1CCOCC1)[C@H]1CC[C@H]2[C@@H]3CC[C@@H]4C[C@H](O)CC[C@]4(C)[C@H]3CC[C@]12C`, the pEC50 is less than 4.30 and the pIC50 was 5.04.
For the molecule `NC(N)=NS(=O)(=O)c1ccc(NCc2c3ccccc3nc3ccccc23)cc1`, the pEC50 is less than 5.70 and the pIC50 is 6.71.
With `BrC(Br)([P+](c1ccccc1)(c1ccccc1)c1ccccc1)[P+](c1ccccc1)(c1ccccc1)c1ccccc1`, the result was inactive.
Still for that read-out and setting: the result for `C=CN1CCCC1=O` reads “inactive”.
`CC(=O)CCNc1ccc(-c2cc(-c3ccc(N(C)C)cc3)nc3ccc4ccccc4c23)cc1`: the pEC50 is less than 3.70 and the pIC50 was 3.99.
As to `O=C(O)c1c(O)ccc(N=Nc2ccc(CCc3ccc(N=Nc4ccc(O)c(C(=O)O)c4O)cc3S(=O)(=O)O)c(S(=O)(=O)O)c2)c1O`, the negative-log EC50 (pEC50) is less than 3.79 and the negative-log IC50 (pIC50) is 4.01.
Taken in the same sequence, the figures for `CCCc1nc(NC#N)nc(C(=O)Nc2ccccc2)c1CC` were less than 3.39 and less than 3.39.
Taken in the same sequence, the figures for `CC1CC(C)(C)N=C(CCCO)O1` (centres undefined) were less than 3.70 and less than 3.70.
Regarding `N#Cc1ncc(C[P+](c2ccccc2)(c2ccccc2)c2ccccc2)nc1N`, the pEC50 was less than 3.70 and the negative logarithm of the IC50 (pIC50) is 3.77.
As to `CC1(c2ccc(Cl)cc2)OC(=O)c2c1ccc1ccccc21` (centres undefined), the result was inactive.
Turning to `CCC1(CC(=O)N(C)C)CCCN(C(=O)Oc2ccccc2)C1` (centres undefined), the pEC50 is less than 4.50 and the negative logarithm of the IC50 (pIC50) was less than 4.50.
`CNC(=O)OC(C)CN1c2ccccc2Sc2ccc(Cl)cc21` (centres undefined): the pEC50 is less than 3.70 and the negative-log IC50 (pIC50) was 4.57.
Turning to `N=C1N(c2ccccc2)C(=O)CC(=O)N1c1ccccc1`, the pEC50 was less than 3.70 and the pIC50 is 4.27.
In the case of `COc1ccc(/C=c2/s/c(=C(\C#N)c3nc4ccccc4[nH]3)n(-c3ccccc3)c2=O)cc1`, the pEC50 is less than 3.70 and the negative logarithm of the IC50 (pIC50) is 4.43.
As for `Cc1ccc(C2CC(=O)CC(c3ccc(C)cc3)C23C(=O)NC(=O)NC3=O)cc1` (centres undefined), the pEC50 was less than 4.00 and the pIC50 is 4.19.
Taken in the same sequence, the figures for `CC(C)CCCC(C)[C@H]1CC[C@H]2[C@@H]3CC[C@H]4C[C@@H](CCC=C(c5cc(Cl)c(OCc6ccc(B(O)O)cc6)c(C(=O)O)c5)c5cc(Cl)c(OCc6ccc(B(O)O)cc6)c(C(=O)O)c5)CC[C@]4(C)[C@H]3CC[C@]12C` (some centres undefined) were 5.23 and 4.03.
For the molecule `O1[SiH]2[SiH]3O[SiH]3[SiH]3O[SiH]3[SiH]12` (centres undefined), the result was inactive.
`CC1(C)CC(=O)C2C(C1)OC1CC(C)(C)CC(=O)C1C2c1ccc2c(c1)OCO2` (centres undefined) gave a negative-log EC50 (pEC50) of less than 3.70 and a pIC50 of 3.81.
In the case of `O=C1c2c(O)cccc2C(C(=O)CCCC(=O)C2c3cccc(O)c3C(=O)c3c(O)cccc32)c2cccc(O)c21`, the pEC50 was less than 5.32 and the pIC50 is 6.10.
For `O=C(O)C[C@@H]1[C@@H](O)[C@@H](O)CN2C(=O)c3ccccc3[C@H]12` the same measures were less than 3.70 and less than 3.70.
For `O=C(Cc1nc2ccc(C(=O)c3ccccc3)cc2[nH]c1=O)C(=O)Nc1ccc(C(F)(F)F)cc1[N+](=O)[O-]` the same measures were less than 4.16 and 4.32.
For `CN(C)c1cc2c3c(c1)CCCN3CCC2` the same measures were less than 3.70 and 4.94.
With `Nc1nc(-c2ccc(Cl)cc2)nc2sc3c(c12)CCCCC3`, the pEC50 is less than 4.52 and the negative logarithm of the IC50 (pIC50) was less than 4.52.
With `CCOC(=O)c1sc2c(c1OC(=O)c1cccs1)c(=O)n(-c1ccccc1)c(=S)n2-c1ccccc1`, the pEC50 is less than 3.70 and the pIC50 was 5.16.
Taken in the same sequence, the figures for `CSC(SC)=C(C(=O)O)P(=O)(O)O` were less than 3.70 and less than 3.70.
Regarding `COc1nc2c(c(=O)n1C)N=C(c1ccccc1)[C@H](C(CC(=O)c1ccccc1)c1ccccc1)C(c1ccccc1)N2` (some centres undefined), the result was inactive.
`COc1cc2c(cc1OC)C13CCC(O)CC1=CC2(C)O3` (centres undefined): the pEC50 was less than 3.19 and the pIC50 was less than 3.19.
Regarding `OC(C1CCC=NN1C(O)(C(F)(F)F)C(F)(F)F)(C(F)(F)F)C(F)(F)F` (centres undefined), the pEC50 was less than 3.70 and the pIC50 is 4.57.
With `O=C(CC1(O)C(=O)N(CN2CCCCC2)c2ccccc21)c1ccccc1` (centres undefined), the pEC50 is less than 3.70 and the pIC50 was 4.01.
Taken in the same sequence, the figures for `NC(=O)c1nnsc1-c1ccco1` were less than 3.70 and less than 3.70.
Taken in the same sequence, the figures for `C=c1c2ccccc2oc2nc3[nH]c(N)c(C#N)c(N)c3c(=N)c12` were less than 3.70 and 5.14.
Taken in the same sequence, the figures for `ClC(Cl)(Cl)C1OCOC(C(Cl)(Cl)Cl)OCO1` (centres undefined) were less than 3.70 and less than 3.70.
For `N=C(OC1CCCCC1)N1CCOCC1`, the pEC50 was less than 3.70 and the pIC50 was less than 3.70.
Take `O=C1CCCCCN1c1ccccn1`: the pEC50 is less than 2.88 and the negative logarithm of the IC50 (pIC50) is less than 2.88.
Take `Clc1cc(Cl)c2n[se]nc2c1`: the result was inactive.
With `CCOC(=O)/C=C/c1cccc(F)c1`, the pEC50 was less than 3.70 and the negative-log IC50 (pIC50) is less than 3.70.
Take `CN(C)c1ccc2c(c1)-c1cc(N(C)C)ccc1C2=C/C=C1\C(=O)c2ccccc2C1=C(C#N)C#N`: the pEC50 is less than 4.81 and the negative-log IC50 (pIC50) is less than 4.81.
On to `O=C(O)c1cc(O)c(O)c(O)c1`, for which the pEC50 was less than 3.70 and the negative logarithm of the IC50 (pIC50) was 4.96.
On to `CC(CCC(=O)O)C1CCC2C3C(O)CC4CC(O)CCC4(C)C3CC(O)C12C` (centres undefined) (tested in a mixture with another compound), for which the pEC50 is less than 3.70 and the pIC50 is less than 3.70.
Turning to `Cc1cc(NS(=O)(=O)c2ccc(NC(=O)c3ccc4nc5ccccc5c(Nc5ccc(S(=O)(=O)Nc6cc(C)on6)cc5)c4c3)cc2)no1`, the pEC50 is 4.17 and the negative logarithm of the IC50 (pIC50) was less than 4.00.
In the case of `NC1=NC(=O)/C(=C/c2ccccc2[N+](=O)[O-])C(N)=N1`, the outcome was inactive.
Consider `O=C(O)c1ccsc1C(=O)c1ccccc1`, for which the pEC50 is less than 3.70 and the negative-log IC50 (pIC50) is less than 3.70.
In the case of `Cn1c2ccccc2c2nnc(N/N=C/c3cccnc3)nc21`, the pEC50 was less than 3.70 and the pIC50 is less than 3.70.
Turning to `CCOC(=O)c1c(-c2[nH]c(C(=O)OCc3ccccc3)c(C)c2C(=O)OCC)[nH]c(C(=O)OCc2ccccc2)c1C`, the outcome was inactive.
Turning to `O=S(=O)(Nc1nnc2c3ccccc3cnn12)c1ccc(F)cc1S`, the pEC50 was 3.96 and the pIC50 is 3.33.
`O=C(Nc1ccc2oc3ccc(Cl)cc3c(=O)c2c1)c1ccc(Cl)cc1Cl`: the pEC50 is less than 4.91 and the pIC50 is less than 4.91.
In the case of `C1=CC(=[N+]2N=C(c3ccccc3)CC2c2ccccc2)C=CC1=C1SC(c2ccccc2)(c2ccccc2)c2ccccc21` (centres undefined), the negative-log EC50 (pEC50) was less than 3.70 and the pIC50 was less than 3.70.
For `O=C(NCc1ccccc1)/C(=C/c1ccc2c(c1)OCO2)NC(=O)c1ccccc1`, the pEC50 was less than 3.70 and the pIC50 was less than 3.70.
Consider `CCCNC(=S)NN1C2CSC1CS2`, for which the pEC50 was less than 3.75 and the negative-log IC50 (pIC50) was less than 3.75.
`NCCC(O)C(=O)NC1CC(N)C(OC2OC(CN)C(O)C(O)C2O)C(O)C1OC1OC(CO)C(O)C(N)C1O` (centres undefined): the outcome was inactive.
Regarding `O=S(=O)(O)SCC1=NCCN1`, the pEC50 was less than 3.70 and the pIC50 was less than 3.70.
Take `O=C(Nc1ccc([N+](=O)[O-])cc1[N+](=O)[O-])C(=O)C(C(=O)c1ccc(Cl)c(Cl)c1)C1OC(=O)c2ccccc21` (centres undefined): the pEC50 is less than 4.05 and the negative logarithm of the IC50 (pIC50) is 4.54.
Taken in the same sequence, the figures for `CCN1CCC(O)(c2ccc(Oc3ccc(F)cc3)cc2)C(C(=O)c2ccc(Oc3ccc(F)cc3)cc2)C1` (centres undefined) were less than 3.70 and 5.03.
In the case of `CC1(C)OCC(CO)(Nc2nc(N3CC3)nc(N3CC3)n2)CO1`, the pEC50 was less than 3.70 and the negative logarithm of the IC50 (pIC50) was 6.13.
For `CC(C)c1nsc(N)c1C(N)=O` the same measures were less than 3.70 and less than 3.70.
Regarding `CC(C)(C)c1ccc(Br)c(CCC(=O)NO)c1`, the outcome was inactive.
For the molecule `COc1ccccc1C1(c2ccccc2OC)OC(=O)c2ccccc21`, the pEC50 was less than 3.70 and the negative-log IC50 (pIC50) is 4.51.
Turning to `CC1(C)CC(N2CCN(C3CC(C)(C)NC(C)(C)C3)CC2)CC(C)(C)N1`, the pEC50 was less than 3.47 and the pIC50 was less than 3.47.
